Assay results reported in patent US20240270762A1, “PENICILLIN-BINDING PROTEIN INHIBITORS” (priority 2021, published 2024).
≈ marks a conversion by molar mass, not a printed value.

How the values were obtained:
A. baumannii ATCC 17978 = assay: microbe, parasite or virus in culture; assay type: cell-based; details: Acinetobacter baumannii, ATCC17978, read-out: MIC, A. baumannii ATCC 17978
[1] = system: P. aeruginosa (ΔmexAB-oprM); assay: Broth microdilution MIC in iron-depleted CAMHB (IDM); assay type: cell-based; details: Pseudomonas aeruginosa; iron-depleted CAMHB (IDM); […]; read-out: Minimum inhibitory concentration, P. aeruginosa ΔmexAB-oprM
P. aeruginosa CDC-0054 = assay: microbe, parasite or virus in culture; assay type: cell-based; details: Pseudomonas aeruginosa, CDC0054, read-out: Minimum inhibitory concentration, P. aeruginosa CDC-0054
A. baumannii 1258916 = assay: microbe, parasite or virus in culture; assay type: cell-based, Acinetobacter baumannii; details: Acinetobacter baumannii, 1258916, read-out: MIC, A. baumannii 1258916
A. baumannii CDC-0036 = assay: microbe, parasite or virus in culture; assay type: cell-based; details: Acinetobacter baumannii, CDC0036, read-out: MIC, A. baumannii CDC-0036
[2] = system: B. thailandensis ATCC 700388; assay: microbe, parasite or virus in culture; assay type: cell-based; details: Burkholderia thailandensis, ATCC700388, read-out: Minimum inhibitory concentration (MIC), B. thailandensis ATCC 700388

O=C(NCCCN1CCN(C(=O)NC(C(=O)N[C@H]2Cc3ccc(F)c(C(=O)O)c3OB2O)c2cc(F)c(O)c(O)c2Cl)C1=O)c1cccnc1 (stereo partly drawn) [Example 281, (3R)-3-(2-(2-chloro-5-fluoro-3,4-dihydroxyphenyl)-2-(3-(3-(nicotinamido)propyl)-2-oxoimidazolidine-1-carboxamido)acetamido)-7-fluoro-2-hydroxy-3,4-dihydro-2H-benzo[e][1,2]oxaborinine-8-carboxylic acid]
MIC (A. baumannii ATCC 17978): < 1 µg/mL | MIC [1]: < 1 µg/mL | MIC (P. aeruginosa CDC-0054): 8 to 16 µg/mL (≈ 11.2 to 22.3 µM) | MIC (A. baumannii 1258916): < 1 µg/mL | MIC (A. baumannii CDC-0036): 2 to 4 µg/mL (≈ 2.79 to 5.58 µM) | MIC [2]: 2 to 4 µg/mL (≈ 2.79 to 5.58 µM)

O=C(NCCS(=O)(=O)N1CCN(C(=O)N[C@H](C(=O)N[C@H]2Cc3ccc(F)c(C(=O)O)c3OB2O)c2cc(F)c(O)c(O)c2Cl)C1=O)c1ccc(O)cc1 [Example 286, (R)-3-((S)-2-(2-chloro-5-fluoro-3,4-dihydroxyphenyl)-2-(3-((2-(4-hydroxybenzamido)ethyl)sulfonyl)-2-oxoimidazolidine-1-carboxamido)acetamido)-7-fluoro-2-hydroxy-3,4-dihydro-2H-benzo[e][1,2]oxaborinine-8-carboxylic acid]
MIC (A. baumannii ATCC 17978): > 128 µg/mL | MIC [1]: > 128 µg/mL | MIC (P. aeruginosa CDC-0054): > 128 µg/mL | MIC (A. baumannii 1258916): > 128 µg/mL | MIC (A. baumannii CDC-0036): > 128 µg/mL | MIC [2]: > 128 µg/mL

O=C(NCCCS(=O)(=O)N1CCN(C(=O)NC(C(=O)N[C@H]2Cc3ccc(F)c(C(=O)O)c3OB2O)c2cc(F)c(O)c(O)c2Cl)C1=O)Nc1ccncc1 (stereo partly drawn) [Example 291, (3R)-3-(2-(2-chloro-5-fluoro-3,4-dihydroxyphenyl)-2-(2-oxo-3-((3-(3-(pyridin-4-yl)ureido)propyl)sulfonyl)imidazolidine-1-carboxamido)acetamido)-7-fluoro-2-hydroxy-3,4-dihydro-2H-benzo[e][1,2]oxaborinine-8-carboxylic acid]
MIC (A. baumannii ATCC 17978): < 1 µg/mL | MIC [1]: < 1 µg/mL | MIC (P. aeruginosa CDC-0054): 2 to 4 µg/mL (≈ 2.51 to 5.03 µM) | MIC (A. baumannii 1258916): < 1 µg/mL | MIC (A. baumannii CDC-0036): 2 to 4 µg/mL (≈ 2.51 to 5.03 µM) | MIC [2]: 2 to 4 µg/mL (≈ 2.51 to 5.03 µM)

O=C(NCCCN1CCN(C(=O)N[C@H](C(=O)N[C@H]2Cc3ccc(F)c(C(=O)O)c3OB2O)c2cc(F)c(O)c(O)c2Cl)C(=O)C1=O)c1cc(F)c(O)cc1F (single isomer, unassigned) [Example 472]
MIC (A. baumannii ATCC 17978): < 1 µg/mL | MIC [1]: < 1 µg/mL | MIC (P. aeruginosa CDC-0054): < 1 µg/mL | MIC (A. baumannii 1258916): 8 to 16 µg/mL (≈ 10.1 to 20.1 µM) | MIC (A. baumannii CDC-0036): 8 to 16 µg/mL (≈ 10.1 to 20.1 µM) | MIC [2]: 2 to 4 µg/mL (≈ 2.51 to 5.03 µM)

O=C(O)c1c(F)ccc2c1OB(O)[C@@H](NC(=O)C(NC(=O)N1CCN(Cc3ccc(O)c(O)c3Cl)C(=O)C1=O)c1cc(F)c(O)c(O)c1Cl)C2 (stereo partly drawn) [Example 292, (3R)-3-(2-(4-(2-chloro-3,4-dihydroxybenzyl)-2,3-dioxopiperazine-1-carboxamido)-2-(2-chloro-5-fluoro-3,4-dihydroxyphenyl)acetamido)-7-fluoro-2-hydroxy-3,4-dihydro-2H-benzo[e][1,2]oxaborinine-8-carboxylic acid]
MIC (A. baumannii ATCC 17978): < 1 µg/mL | MIC [1]: < 1 µg/mL | MIC (P. aeruginosa CDC-0054): < 1 µg/mL | MIC (A. baumannii 1258916): > 128 µg/mL | MIC (A. baumannii CDC-0036): > 128 µg/mL | MIC [2]: > 128 µg/mL

O=C(NCCS(=O)(=O)N1CCN(C(=O)N[C@@H](C(=O)N[C@H]2Cc3ccc(F)c(C(=O)O)c3OB2O)c2cc(F)c(O)c(O)c2Cl)C1=O)Nc1ccncc1 [Example 290, (R)-3-((R)-2-(2-chloro-5-fluoro-3,4-dihydroxyphenyl)-2-(2-oxo-3-((2-(3-(pyridin-4-yl)ureido)ethyl)sulfonyl)imidazolidine-1-carboxamido)acetamido)-7-fluoro-2-hydroxy-3,4-dihydro-2H-benzo[e][1,2]oxaborinine-8-carboxylic acid]
MIC (A. baumannii ATCC 17978): < 1 µg/mL | MIC [1]: < 1 µg/mL | MIC (P. aeruginosa CDC-0054): 2 to 4 µg/mL (≈ 2.56 to 5.12 µM) | MIC (A. baumannii 1258916): < 1 µg/mL | MIC (A. baumannii CDC-0036): 2 to 4 µg/mL (≈ 2.56 to 5.12 µM) | MIC [2]: 2 to 4 µg/mL (≈ 2.56 to 5.12 µM)

O=C(NCCCN1CCN(C(=O)NC(C(=O)N[C@H]2Cc3ccc(F)c(C(=O)O)c3OB2O)c2cc(F)c(O)c(O)c2Cl)C(=O)C1=O)c1ccnc(F)c1 (stereo partly drawn) [Example 466, (3R)-3-(2-(2-chloro-5-fluoro-3,4-dihydroxyphenyl)-2-(4-(3-(2-fluoroisonicotinamido)propyl)-2,3-dioxopiperazine-1-carboxamido)acetamido)-7-fluoro-2-hydroxy-3,4-dihydro-2H-benzo[e][1,2]oxaborinine-8-carboxylic acid]
MIC (A. baumannii ATCC 17978): < 1 µg/mL | MIC [1]: < 1 µg/mL | MIC (P. aeruginosa CDC-0054): < 1 µg/mL | MIC (A. baumannii 1258916): 2 to 4 µg/mL (≈ 2.62 to 5.24 µM) | MIC (A. baumannii CDC-0036): 2 to 4 µg/mL (≈ 2.62 to 5.24 µM) | MIC [2]: 2 to 4 µg/mL (≈ 2.62 to 5.24 µM)

O=C(NCCCN1CCN(C(=O)N[C@H](C(=O)N[C@H]2Cc3ccc(F)c(C(=O)O)c3OB2O)c2cc(F)c(O)c(O)c2Cl)C(=O)C1=O)c1ccc(O)cc1Cl (single isomer, unassigned) [Example 470]
MIC (A. baumannii ATCC 17978): < 1 µg/mL | MIC [1]: < 1 µg/mL | MIC (P. aeruginosa CDC-0054): < 1 µg/mL | MIC (A. baumannii 1258916): > 128 µg/mL | MIC (A. baumannii CDC-0036): 32 to 64 µg/mL (≈ 40.3 to 80.6 µM) | MIC [2]: > 128 µg/mL

O=C(NCCCN1CCN(C(=O)N[C@H](C(=O)N[C@H]2Cc3ccc(F)c(C(=O)O)c3OB2O)c2cc(F)c(O)c(O)c2Cl)C(=O)C1=O)c1cccc(O)c1Cl [Example 302, (R)-3-((S)-2-(4-(3-(2-chloro-3-hydroxybenzamido)propyl)-2,3-dioxopiperazine-1-carboxamido)-2-(2-chloro-5-fluoro-3,4-dihydroxyphenyl)acetamido)-7-fluoro-2-hydroxy-3,4-dihydro-2H-benzo[e][1,2]oxaborinine-8-carboxylic acid]
MIC (A. baumannii ATCC 17978): 2 to 4 µg/mL (≈ 2.52 to 5.04 µM) | MIC [1]: 2 to 4 µg/mL (≈ 2.52 to 5.04 µM) | MIC (P. aeruginosa CDC-0054): 32 to 64 µg/mL (≈ 40.3 to 80.6 µM) | MIC (A. baumannii 1258916): > 128 µg/mL | MIC (A. baumannii CDC-0036): > 128 µg/mL | MIC [2]: > 128 µg/mL

O=C(NCCCN1CCN(C(=O)N[C@H](C(=O)N[C@H]2Cc3ccc(F)c(C(=O)O)c3OB2O)c2cc(F)c(O)c(O)c2Cl)C(=O)C1=O)c1ccnc(F)c1F [Example 299, (R)-3-((S)-2-(2-chloro-5-fluoro-3,4-dihydroxyphenyl)-2-(4-(3-(2,3-difluoroisonicotinamido)propyl)-2,3-dioxopiperazine-1-carboxamido)acetamido)-7-fluoro-2-hydroxy-3,4-dihydro-2H-benzo[e][1,2]oxaborinine-8-carboxylic acid]
MIC (A. baumannii ATCC 17978): < 1 µg/mL | MIC [1]: 2 to 4 µg/mL (≈ 2.56 to 5.12 µM) | MIC (P. aeruginosa CDC-0054): 2 to 4 µg/mL (≈ 2.56 to 5.12 µM) | MIC (A. baumannii 1258916): 8 to 16 µg/mL (≈ 10.2 to 20.5 µM) | MIC (A. baumannii CDC-0036): 32 to 64 µg/mL (≈ 41 to 82 µM) | MIC [2]: > 128 µg/mL

CS(=O)(=O)N1CCN(C(=O)N[C@@H](C(=O)N[C@H]2Cc3cccc(C(=O)O)c3OB2O)c2ccc(P(=O)(O)O)cc2)C1=O (single isomer, unassigned) [Example 6]
MIC (A. baumannii ATCC 17978): 2 to 4 µg/mL (≈ 3.28 to 6.55 µM) | MIC [1]: 8 to 16 µg/mL (≈ 13.1 to 26.2 µM) | MIC (P. aeruginosa CDC-0054): > 128 µg/mL | MIC (A. baumannii 1258916): 32 to 64 µg/mL (≈ 52.4 to 105 µM) | MIC (A. baumannii CDC-0036): 32 to 64 µg/mL (≈ 52.4 to 105 µM) | MIC [2]: 8 to 16 µg/mL (≈ 13.1 to 26.2 µM)

O=C(NCCCN1CCN(C(=O)N[C@H](C(=O)N[C@H]2Cc3ccc(F)c(C(=O)O)c3OB2O)c2cc(F)c(O)c(O)c2Cl)C1=O)Nc1ccc(O)cc1 [Example 283, (R)-3-((S)-2-(2-chloro-5-fluoro-3,4-dihydroxyphenyl)-2-(3-(3-(3-(4-hydroxyphenyl)ureido)propyl)-2-oxoimidazolidine-1-carboxamido)acetamido)-7-fluoro-2-hydroxy-3,4-dihydro-2H-benzo[e][1,2]oxaborinine-8-carboxylic acid]
MIC (A. baumannii ATCC 17978): > 128 µg/mL | MIC [1]: > 128 µg/mL | MIC (P. aeruginosa CDC-0054): > 128 µg/mL | MIC (A. baumannii 1258916): > 128 µg/mL | MIC (A. baumannii CDC-0036): > 128 µg/mL | MIC [2]: > 128 µg/mL
